For assay [1], the target named is PIK3CD (Human) (UniProt O00329). Put plainly: Enzyme Assay.
A further assay addresses PIK3CG (human) (UniProt P48736). Nature of the assay: Enzyme Assay.
Assay [2] deals with PIK3CA (human) (UniProt P42336). Put plainly: Enzyme Assay.
Assay [3] deals with PIK3CA (human), P42336 [I800L]. Nature of the assay: Enzyme Assay.
Assay [4] deals with PIK3CB (Human) (UniProt P42338). Nature of the assay: Enzyme Assay.
Assay [5] deals with PIK3CD (Human) (UniProt O00329). Put plainly: Cell-Based Assay. The following applies: jurkat.
Assay [6] concerns the target PIK3CA (human) (UniProt P42336). Put plainly: Cell-Based Assay. The note with it: jurkat.
Assay [7] concerns the target PIK3CB (Human) (UniProt P42338). Nature of the assay: Cell-Based Assay. The note with it: jurkat.
For assay [8] the target is unchanged. Nature of the assay: Cell-Based Assay. The note with it: jurkat. The source holds these as a separate data set.

The results in this text go back to the Kinase Knowledgebase extract (Sharma et al. 2016).

Structures are written as SMILES. pIC50, pKd: −log10 of the molar value. Where “and” joins values, the source holds several entries; their conditions need not be identical. Equal values may be shown once. Bounds are passed on as bounds.

Sequence of PIK3CB (Human) (P42338 whole entry, looked up): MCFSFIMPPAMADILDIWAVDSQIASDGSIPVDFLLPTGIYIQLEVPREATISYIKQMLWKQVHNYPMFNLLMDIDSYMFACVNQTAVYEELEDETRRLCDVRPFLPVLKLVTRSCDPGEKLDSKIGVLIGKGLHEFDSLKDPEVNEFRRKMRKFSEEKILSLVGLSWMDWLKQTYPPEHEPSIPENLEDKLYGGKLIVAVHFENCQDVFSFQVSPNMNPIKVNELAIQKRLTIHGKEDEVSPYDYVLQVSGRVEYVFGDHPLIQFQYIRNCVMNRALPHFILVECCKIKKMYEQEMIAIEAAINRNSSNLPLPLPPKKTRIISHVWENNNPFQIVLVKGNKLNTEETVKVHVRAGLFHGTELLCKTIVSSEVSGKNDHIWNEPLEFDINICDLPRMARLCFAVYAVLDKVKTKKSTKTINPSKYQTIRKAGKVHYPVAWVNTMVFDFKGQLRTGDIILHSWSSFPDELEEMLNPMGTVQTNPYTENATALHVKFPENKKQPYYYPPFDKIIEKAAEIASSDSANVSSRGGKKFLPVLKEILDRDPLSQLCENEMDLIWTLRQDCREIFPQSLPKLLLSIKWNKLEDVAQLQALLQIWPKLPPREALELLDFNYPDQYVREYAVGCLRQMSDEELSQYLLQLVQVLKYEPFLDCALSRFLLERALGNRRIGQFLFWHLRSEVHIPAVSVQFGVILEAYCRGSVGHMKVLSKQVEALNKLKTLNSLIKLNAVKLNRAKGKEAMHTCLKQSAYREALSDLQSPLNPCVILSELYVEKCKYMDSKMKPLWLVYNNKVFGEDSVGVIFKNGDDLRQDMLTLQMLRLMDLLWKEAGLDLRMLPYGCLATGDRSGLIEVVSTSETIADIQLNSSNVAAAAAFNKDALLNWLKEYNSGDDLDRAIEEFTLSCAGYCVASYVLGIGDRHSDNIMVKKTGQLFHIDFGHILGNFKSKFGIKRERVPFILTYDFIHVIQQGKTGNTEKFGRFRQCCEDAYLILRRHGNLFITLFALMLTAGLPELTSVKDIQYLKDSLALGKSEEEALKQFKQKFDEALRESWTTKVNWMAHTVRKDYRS
Sequence of PIK3CD (Human) (O00329 whole entry, looked up): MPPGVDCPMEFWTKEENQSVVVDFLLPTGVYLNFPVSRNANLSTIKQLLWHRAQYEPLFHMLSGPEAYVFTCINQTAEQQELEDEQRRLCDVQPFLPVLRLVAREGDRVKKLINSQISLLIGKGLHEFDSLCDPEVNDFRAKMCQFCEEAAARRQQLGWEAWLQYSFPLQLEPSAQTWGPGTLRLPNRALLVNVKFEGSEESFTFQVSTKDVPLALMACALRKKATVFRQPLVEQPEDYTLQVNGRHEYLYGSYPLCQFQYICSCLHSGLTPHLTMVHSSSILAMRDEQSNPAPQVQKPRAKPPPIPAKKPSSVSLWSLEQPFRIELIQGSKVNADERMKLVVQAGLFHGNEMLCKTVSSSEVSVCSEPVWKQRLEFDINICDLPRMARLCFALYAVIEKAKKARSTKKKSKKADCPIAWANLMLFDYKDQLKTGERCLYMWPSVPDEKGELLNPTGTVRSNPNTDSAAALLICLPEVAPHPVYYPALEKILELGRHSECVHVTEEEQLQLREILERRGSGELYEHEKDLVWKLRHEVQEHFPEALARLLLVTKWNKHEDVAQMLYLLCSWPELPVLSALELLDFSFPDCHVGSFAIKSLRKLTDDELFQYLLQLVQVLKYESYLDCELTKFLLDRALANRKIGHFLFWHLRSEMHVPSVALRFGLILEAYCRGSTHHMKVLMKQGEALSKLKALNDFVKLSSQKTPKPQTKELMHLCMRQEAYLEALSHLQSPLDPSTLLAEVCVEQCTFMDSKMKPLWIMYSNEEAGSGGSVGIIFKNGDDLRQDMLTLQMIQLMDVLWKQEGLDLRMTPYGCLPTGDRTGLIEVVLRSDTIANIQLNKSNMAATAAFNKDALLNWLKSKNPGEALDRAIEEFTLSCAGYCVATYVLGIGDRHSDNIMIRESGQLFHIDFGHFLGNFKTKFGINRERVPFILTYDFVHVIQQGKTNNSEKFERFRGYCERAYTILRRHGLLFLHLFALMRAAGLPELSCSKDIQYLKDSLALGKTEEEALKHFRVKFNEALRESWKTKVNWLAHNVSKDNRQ
Sequence of PIK3CA (human) (P42336 whole entry, looked up): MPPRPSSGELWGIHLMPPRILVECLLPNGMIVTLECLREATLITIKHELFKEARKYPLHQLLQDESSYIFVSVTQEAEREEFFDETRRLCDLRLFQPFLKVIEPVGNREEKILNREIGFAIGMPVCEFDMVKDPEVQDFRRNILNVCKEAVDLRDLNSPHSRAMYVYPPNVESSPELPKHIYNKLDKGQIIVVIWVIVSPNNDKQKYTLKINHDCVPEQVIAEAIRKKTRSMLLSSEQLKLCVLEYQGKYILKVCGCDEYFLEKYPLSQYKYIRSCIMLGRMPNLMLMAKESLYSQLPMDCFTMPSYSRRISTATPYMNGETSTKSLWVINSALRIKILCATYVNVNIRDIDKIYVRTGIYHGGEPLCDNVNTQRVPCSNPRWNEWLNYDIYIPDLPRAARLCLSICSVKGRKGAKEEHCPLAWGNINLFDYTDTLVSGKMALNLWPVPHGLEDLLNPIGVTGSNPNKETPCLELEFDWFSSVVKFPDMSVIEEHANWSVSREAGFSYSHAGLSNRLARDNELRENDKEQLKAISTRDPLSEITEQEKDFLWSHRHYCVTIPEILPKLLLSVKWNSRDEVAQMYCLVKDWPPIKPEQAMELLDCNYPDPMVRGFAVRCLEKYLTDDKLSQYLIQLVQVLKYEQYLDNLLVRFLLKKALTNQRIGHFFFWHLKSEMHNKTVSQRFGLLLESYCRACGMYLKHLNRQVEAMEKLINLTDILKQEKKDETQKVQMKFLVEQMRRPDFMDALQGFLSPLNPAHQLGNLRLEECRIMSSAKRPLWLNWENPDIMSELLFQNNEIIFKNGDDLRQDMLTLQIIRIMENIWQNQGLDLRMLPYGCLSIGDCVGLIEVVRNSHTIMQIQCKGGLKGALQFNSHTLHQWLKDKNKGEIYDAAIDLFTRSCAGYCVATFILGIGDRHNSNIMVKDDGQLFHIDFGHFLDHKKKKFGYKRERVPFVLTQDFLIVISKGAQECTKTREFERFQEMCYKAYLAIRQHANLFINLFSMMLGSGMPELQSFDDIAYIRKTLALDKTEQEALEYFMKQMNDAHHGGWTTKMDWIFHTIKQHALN
Sequence of PIK3CG (human) (P48736 whole entry, looked up): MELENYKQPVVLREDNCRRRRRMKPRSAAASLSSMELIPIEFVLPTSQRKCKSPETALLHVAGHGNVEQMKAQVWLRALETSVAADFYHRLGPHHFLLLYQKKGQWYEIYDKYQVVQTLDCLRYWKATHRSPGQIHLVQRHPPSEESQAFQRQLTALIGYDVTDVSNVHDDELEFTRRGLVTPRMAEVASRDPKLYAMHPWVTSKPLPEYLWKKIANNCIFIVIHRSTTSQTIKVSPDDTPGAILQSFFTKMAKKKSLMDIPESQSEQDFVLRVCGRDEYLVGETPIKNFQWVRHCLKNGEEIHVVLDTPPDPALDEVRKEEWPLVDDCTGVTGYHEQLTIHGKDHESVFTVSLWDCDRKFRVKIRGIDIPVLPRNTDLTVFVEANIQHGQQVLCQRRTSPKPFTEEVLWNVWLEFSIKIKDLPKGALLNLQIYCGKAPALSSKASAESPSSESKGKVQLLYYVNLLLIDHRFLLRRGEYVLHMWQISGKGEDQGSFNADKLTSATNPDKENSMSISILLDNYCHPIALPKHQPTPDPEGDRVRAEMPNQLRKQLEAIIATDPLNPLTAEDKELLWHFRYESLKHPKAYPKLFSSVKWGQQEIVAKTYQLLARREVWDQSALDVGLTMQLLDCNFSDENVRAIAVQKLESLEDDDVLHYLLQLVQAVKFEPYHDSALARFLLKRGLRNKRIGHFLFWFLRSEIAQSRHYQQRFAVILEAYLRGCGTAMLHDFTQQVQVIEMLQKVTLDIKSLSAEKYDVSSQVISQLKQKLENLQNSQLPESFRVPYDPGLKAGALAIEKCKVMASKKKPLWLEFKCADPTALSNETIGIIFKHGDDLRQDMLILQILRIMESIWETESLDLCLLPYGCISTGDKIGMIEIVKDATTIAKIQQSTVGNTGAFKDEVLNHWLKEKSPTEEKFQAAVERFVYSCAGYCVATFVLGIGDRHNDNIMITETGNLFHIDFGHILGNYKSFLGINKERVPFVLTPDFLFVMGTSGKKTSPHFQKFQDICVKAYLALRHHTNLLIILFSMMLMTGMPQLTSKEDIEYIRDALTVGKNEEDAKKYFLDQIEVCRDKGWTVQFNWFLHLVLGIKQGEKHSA
Sequence of PIK3CA (human), P42336 [I800L] (P42336 whole entry I800L, looked up): as the sequence (P42336 whole entry, looked up) above, with I800L counted along it

As a reminder, the pIC50 is the IC50 on a negative log10 scale, so that one unit is a factor of ten. The term pKd denotes the negative decadic logarithm of the Kd, by convention in mol/L. A lower pKd goes with a large Kd. `COC(=O)Nc1ccc(-c2nc(N3CCOCC3)c3cnn(C4CCN(C(=O)OC)CC4)c3n2)cc1`: the pIC50 against PIK3CD (Human) [1] was 5.89; against PIK3CG (human) it was 5.73; against PIK3CA (human) [2] it was 6.05; on PIK3CB (Human) [4], less than 4.92; at PIK3CD (Human) [5] it was 5.48 and 6.01; at PIK3CA (human) [6] it was 5.92. In addition, the pIC50 at PIK3CB (Human) [7] was 5.00; on PIK3CB (Human) [8], 5.04. The results for the pKd (at PIK3CA (human) [2]; in assay [3]) were 6.85 and 6.72, respectively.
